In PubChem BioAssay (NCI) one finds TGI data, which are given here for 27 compounds.

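Where inhibition never reached the appropriate level, the endpoint shown equals the highest concentration tested. Otherwise, values were interpolated linearly from a five-concentration, 48-hour dose response in 96-well plates. At the TGI there is no net growth.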

For the first test, the system named is CAKI-1 renal. Description: inhibition of tumour cell growth, NCI panel, 48 h.
Regarding `CCN(CCO)CC1COc2ccccc2O1` (stereo not given), the TGI is above 100 µM.
In turn, `C/C(CC1C2CCCC1C2)=N\NC(N)=O` (stereo not given) registered a TGI above 100 µM.
The same measure, in the same setting: for `c1ccc2sc(SCSc3nc4ccccc4s3)nc2c1` the value was above 100 µM; for `O=c1oc(-c2ccc(O)c(O)c2)cc2cccc(O)c12`, 38.7 µM.
With `O=C1/C(=C\c2cccc(Oc3ccccc3)c2)S(=O)(=O)C(c2ccccc2)N1Cc1ccccc1` (stereo not given), the TGI worked out at 75 µM.
The same measure, in the same setting: for `O=[N+]([O-])/C(C(Cl)=C(Cl)Cl)=C(\Nc1cccc2cccnc12)SCc1ccccc1` the value was 43.3 µM.
Take `COc1ccc(C#CC(=O)O)c(OC)c1`: the TGI was above 100 µM.
Turning to `CCOC(=O)NC(=S)NN(C)C1=NCC(C)(C)S1`, the TGI is above 100 µM.
The same measure, in the same setting: in the case of `Cc1cc2[nH]c3[nH]c(=O)[nH]c(=O)c3c2cc1C` it was above 100 µM.
`C/C=C/C=C/c1nc(C#N)c(N)o1` displayed a TGI above 100 µM.
As for `CC(C)COP(=O)(OCC(C)C)C(NS(=O)(=O)c1ccccc1)(C(F)(F)F)C(F)(F)F`, the TGI amounted to 18.6 µM.
The compound `CC(O)C1CC1(CO)CNc1cc(Cl)nc(N)n1` (stereo not given) showed a TGI above 100 µM.

In another test the test system is SF-295 CNS. Description: inhibition of tumour cell growth, NCI panel, 48 h.
The compound `CS(=O)(=O)OCCn1c(=O)n(CCOS(C)(=O)=O)c(=O)n(CCOS(C)(=O)=O)c1=O` displayed a TGI above 100 µM.
`c1ccc2c(c1)NC(C1OC3CCCN3C1C1Nc3ccccc3S1)S2` (stereo not given) showed a TGI above 100 µM.
On the same count and under the same terms, in the case of `O=P(c1ccccc1)(c1ccccc1)N1O[C@@H](c2ccccc2)C=C[C@H]1c1ccccc1` it was 28.7 µM.
On to `COc1nc(C#CCC(C)O)nc(OC)n1` (stereo not given), for which the TGI is above 100 µM.
For the compound `COC(=O)[C@]12CC[C@H]3CN(C(=O)OCc4ccccc4)[C@H]([C@H]31)[C@H](c1ccco1)N2S(=O)(=O)c1ccc(C)cc1`, the TGI was 81.9 µM.
`O=C1C[C@H](Sc2ccccc2)C2(OCCO2)[C@@H](Sc2ccccc2)C1` showed a TGI of 17.9 µM.
Still for that read-out and setting: for `CCCNC(=O)CCC(C)[C@H]1CCC2C3C(C[C@H](OC(C)=O)[C@@]21C)[C@@]1(C)CCC2(C[C@H]1C[C@H]3OC(C)=O)OOC1(CCC(C)CC1)OO2` (stereo not given in full) the value was 52.5 µM; for `CCN(C(=S)N[C@@H](Cc1ccccc1)C(=O)N[C@@H](CC(C)C)C(=O)OC)c1ccccc1`, above 100 µM.
As to `CCCn1c(CN(Cc2nc3ccccc3n2CCC)Cc2nc3ccccc3n2CCC)nc2ccccc21`, the TGI stood at 30.7 µM.
In turn, `CSc1c(C#N)c(N)n2c1C(=O)N(c1ccccc1)C2=S` came in with a TGI above 100 µM.
In turn, `NNC(=O)c1ccc[n+](CCc2ccccc2)c1` returned a TGI above 100 µM.
The same measure, in the same setting: for `COc1cc(NS(C)(=O)=O)ccc1N1Cc2cnc3ccc4[nH]c(C)cc1c4c23` the value was above 100 µM; for `CC12CC(=O)C3C(C(=O)C1)C32C` (stereo not given), above 100 µM; for `O=C1CN2C(c3ccccc3)=NN(c3ccc([N+](=O)[O-])cc3)C2(c2ccccc2)c2cc(Cl)ccc2N1CC1CC1` (stereo not given), above 100 µM.
In the case of `COc1ccc2cc3c4cc5c(cc4cc[n+]3cc2c1OC)OCO5`, the TGI is above 93 µM.
Turning to `CCN(CCO)CC1COc2ccccc2O1` (stereo not given), the TGI is above 100 µM.
For `C/C(CC1C2CCCC1C2)=N\NC(N)=O` (stereo not given), the TGI was above 100 µM.
`c1ccc2sc(SCSc3nc4ccccc4s3)nc2c1` showed a TGI above 100 µM.
The compound `O=c1oc(-c2ccc(O)c(O)c2)cc2cccc(O)c12` displayed a TGI of 80.2 µM.
`O=C1/C(=C\c2cccc(Oc3ccccc3)c2)S(=O)(=O)C(c2ccccc2)N1Cc1ccccc1` (stereo not given): the TGI is above 100 µM.
Consider `O=[N+]([O-])/C(C(Cl)=C(Cl)Cl)=C(\Nc1cccc2cccnc12)SCc1ccccc1`, for which the TGI worked out at 37.4 µM.
`COc1ccc(C#CC(=O)O)c(OC)c1` came in with a TGI above 100 µM.
Consider `CCOC(=O)NC(=S)NN(C)C1=NCC(C)(C)S1`, for which the TGI was above 100 µM.
`Cc1cc2[nH]c3[nH]c(=O)[nH]c(=O)c3c2cc1C` came in with a TGI above 100 µM.
`C/C=C/C=C/c1nc(C#N)c(N)o1` displayed a TGI above 100 µM.
Same read-out and setting: in the case of `CC(C)COP(=O)(OCC(C)C)C(NS(=O)(=O)c1ccccc1)(C(F)(F)F)C(F)(F)F` it was 37 µM.
In turn, `CC(O)C1CC1(CO)CNc1cc(Cl)nc(N)n1` (stereo not given) gave a TGI above 100 µM.

A further test deals with SN12C renal. The test is described as follows: inhibition of tumour cell growth, NCI panel, 48 h.
In turn, `CS(=O)(=O)OCCn1c(=O)n(CCOS(C)(=O)=O)c(=O)n(CCOS(C)(=O)=O)c1=O` returned a TGI above 100 µM.
On the same count and under the same terms, for `c1ccc2c(c1)NC(C1OC3CCCN3C1C1Nc3ccccc3S1)S2` (stereo not given) the value was above 100 µM; for `O=P(c1ccccc1)(c1ccccc1)N1O[C@@H](c2ccccc2)C=C[C@H]1c1ccccc1`, 17.5 µM; for `COc1nc(C#CCC(C)O)nc(OC)n1` (stereo not given), 42.5 µM.
`COC(=O)[C@]12CC[C@H]3CN(C(=O)OCc4ccccc4)[C@H]([C@H]31)[C@H](c1ccco1)N2S(=O)(=O)c1ccc(C)cc1` came in with a TGI of 39 µM.
As for `O=C1C[C@H](Sc2ccccc2)C2(OCCO2)[C@@H](Sc2ccccc2)C1`, the TGI was 10.6 µM.
Compound `CCCNC(=O)CCC(C)[C@H]1CCC2C3C(C[C@H](OC(C)=O)[C@@]21C)[C@@]1(C)CCC2(C[C@H]1C[C@H]3OC(C)=O)OOC1(CCC(C)CC1)OO2` (stereo not given in full) returned a TGI above 100 µM.
With `CCN(C(=S)N[C@@H](Cc1ccccc1)C(=O)N[C@@H](CC(C)C)C(=O)OC)c1ccccc1`, the TGI was above 100 µM.
The same measure, in the same setting: in the case of `CCCn1c(CN(Cc2nc3ccccc3n2CCC)Cc2nc3ccccc3n2CCC)nc2ccccc21` it was 6.81 µM; in that of `CSc1c(C#N)c(N)n2c1C(=O)N(c1ccccc1)C2=S`, above 100 µM; in that of `NNC(=O)c1ccc[n+](CCc2ccccc2)c1`, above 100 µM.
Same read-out and setting: in the case of `CC12CC(=O)C3C(C(=O)C1)C32C` (stereo not given) it was above 100 µM; in that of `O=C1CN2C(c3ccccc3)=NN(c3ccc([N+](=O)[O-])cc3)C2(c2ccccc2)c2cc(Cl)ccc2N1CC1CC1` (stereo not given), above 100 µM.
With `COc1ccc2cc3c4cc5c(cc4cc[n+]3cc2c1OC)OCO5`, the TGI stood at 54.2 µM.
On the same count and under the same terms, for `CCN(CCO)CC1COc2ccccc2O1` (stereo not given) the value was above 100 µM.
`C/C(CC1C2CCCC1C2)=N\NC(N)=O` (stereo not given) registered a TGI above 100 µM.
With `c1ccc2sc(SCSc3nc4ccccc4s3)nc2c1`, the TGI is above 100 µM.
In turn, `O=c1oc(-c2ccc(O)c(O)c2)cc2cccc(O)c12` yielded a TGI of 46.1 µM.
For `O=C1/C(=C\c2cccc(Oc3ccccc3)c2)S(=O)(=O)C(c2ccccc2)N1Cc1ccccc1` (stereo not given), the TGI turned out to be 58.6 µM.
Consider `O=[N+]([O-])/C(C(Cl)=C(Cl)Cl)=C(\Nc1cccc2cccnc12)SCc1ccccc1`, for which the TGI came out at 60.7 µM.
With `COc1ccc(C#CC(=O)O)c(OC)c1`, the TGI is above 100 µM.
`CCOC(=O)NC(=S)NN(C)C1=NCC(C)(C)S1` came in with a TGI above 100 µM.
`Cc1cc2[nH]c3[nH]c(=O)[nH]c(=O)c3c2cc1C` gave a TGI above 100 µM.
Same read-out and setting: for `C/C=C/C=C/c1nc(C#N)c(N)o1` the value was above 100 µM; for `CC(C)COP(=O)(OCC(C)C)C(NS(=O)(=O)c1ccccc1)(C(F)(F)F)C(F)(F)F`, 18.8 µM; for `CC(O)C1CC1(CO)CNc1cc(Cl)nc(N)n1` (stereo not given), above 100 µM.
